The source of these data is ChEMBL document CHEMBL1144228, “Isoxazolo[3,4-b]quinoline-3,4(1H,9H)-diones as unique, potent and selective inhibitors for Pim-1 and Pim-2 kinases: chemistry, biological activities, and molecular modeling” (Bioorg Med Chem Lett, 2008).

In assay [1] the target is Serine/threonine-protein kinase pim-2 (Homo sapiens, UniProt Q9P1W9). Put plainly: Inhibition of Pim2.
In assay [2] the target is Serine/threonine-protein kinase pim-1 (Homo sapiens, UniProt P11309). The experiment in a line: Inhibition of Pim1.
Serine/threonine-protein kinase pim-1, sequence (P11309 whole entry): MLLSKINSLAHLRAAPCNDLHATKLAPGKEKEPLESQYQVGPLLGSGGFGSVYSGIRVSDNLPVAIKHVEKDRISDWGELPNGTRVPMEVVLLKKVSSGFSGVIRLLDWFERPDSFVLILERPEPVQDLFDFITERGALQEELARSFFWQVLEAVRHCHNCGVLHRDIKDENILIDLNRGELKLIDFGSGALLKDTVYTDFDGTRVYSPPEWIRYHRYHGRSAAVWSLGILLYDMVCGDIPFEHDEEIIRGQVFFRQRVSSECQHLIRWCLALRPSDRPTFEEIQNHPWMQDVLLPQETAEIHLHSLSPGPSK
Assay [3] deals with T1, Protein kinase C iota type (Homo sapiens, UniProt P41743).
T1 sequence (P41743 whole entry): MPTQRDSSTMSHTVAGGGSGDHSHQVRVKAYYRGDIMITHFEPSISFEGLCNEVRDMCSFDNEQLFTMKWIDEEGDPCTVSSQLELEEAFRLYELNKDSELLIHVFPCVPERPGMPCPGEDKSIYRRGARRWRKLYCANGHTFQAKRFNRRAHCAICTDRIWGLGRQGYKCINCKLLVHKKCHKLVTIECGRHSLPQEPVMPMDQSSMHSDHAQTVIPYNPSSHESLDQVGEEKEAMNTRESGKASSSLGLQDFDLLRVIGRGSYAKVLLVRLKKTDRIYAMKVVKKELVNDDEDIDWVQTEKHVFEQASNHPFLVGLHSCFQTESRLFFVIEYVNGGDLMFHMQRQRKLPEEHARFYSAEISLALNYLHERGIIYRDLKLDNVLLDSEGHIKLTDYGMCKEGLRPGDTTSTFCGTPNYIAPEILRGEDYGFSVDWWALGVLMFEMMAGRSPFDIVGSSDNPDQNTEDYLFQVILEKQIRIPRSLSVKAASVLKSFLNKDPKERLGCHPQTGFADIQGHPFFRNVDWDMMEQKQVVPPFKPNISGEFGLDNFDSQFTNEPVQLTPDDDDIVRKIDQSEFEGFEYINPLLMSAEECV
The experiment in a line: Inhibition of PKCiota.

The target in assay [4] is T2, 5'-AMP-activated protein kinase subunit beta-1 (Homo sapiens, UniProt Q9Y478).
T2 sequence (Q9Y478 whole entry): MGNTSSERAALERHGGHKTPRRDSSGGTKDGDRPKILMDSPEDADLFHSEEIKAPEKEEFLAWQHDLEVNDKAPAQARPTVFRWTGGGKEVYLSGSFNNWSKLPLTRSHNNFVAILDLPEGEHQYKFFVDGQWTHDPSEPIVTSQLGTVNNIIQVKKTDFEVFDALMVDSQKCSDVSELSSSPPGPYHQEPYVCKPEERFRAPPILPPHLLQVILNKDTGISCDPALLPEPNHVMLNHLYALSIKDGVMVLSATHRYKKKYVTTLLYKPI
The experiment in a line: Inhibition of AMPK.

Assay [5] is described as follows: Inhibition of PKA.
Assay [6] in a line: Inhibition of Aurora1.
Assay [7] in a line: Inhibition of Casein kinase 2.
Assay [8] has as its target Serine/threonine-protein kinase MARK1 (Homo sapiens, UniProt Q9P0L2). Put plainly: Inhibition of MARK.
The nature of assay [9]: Inhibition of Aurora2.

Serine/threonine-protein kinase pim-2, sequence (Q9P1W9 whole entry): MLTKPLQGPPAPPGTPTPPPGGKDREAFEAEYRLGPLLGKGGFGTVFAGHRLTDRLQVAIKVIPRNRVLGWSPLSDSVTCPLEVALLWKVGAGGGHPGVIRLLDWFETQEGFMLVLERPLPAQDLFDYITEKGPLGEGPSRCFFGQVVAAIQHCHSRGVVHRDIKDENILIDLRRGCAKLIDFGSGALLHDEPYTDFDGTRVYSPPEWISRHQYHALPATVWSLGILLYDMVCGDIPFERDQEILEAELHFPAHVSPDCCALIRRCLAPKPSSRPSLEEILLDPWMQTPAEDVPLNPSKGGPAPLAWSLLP
Serine/threonine-protein kinase MARK1, sequence (Q9P0L2 whole entry): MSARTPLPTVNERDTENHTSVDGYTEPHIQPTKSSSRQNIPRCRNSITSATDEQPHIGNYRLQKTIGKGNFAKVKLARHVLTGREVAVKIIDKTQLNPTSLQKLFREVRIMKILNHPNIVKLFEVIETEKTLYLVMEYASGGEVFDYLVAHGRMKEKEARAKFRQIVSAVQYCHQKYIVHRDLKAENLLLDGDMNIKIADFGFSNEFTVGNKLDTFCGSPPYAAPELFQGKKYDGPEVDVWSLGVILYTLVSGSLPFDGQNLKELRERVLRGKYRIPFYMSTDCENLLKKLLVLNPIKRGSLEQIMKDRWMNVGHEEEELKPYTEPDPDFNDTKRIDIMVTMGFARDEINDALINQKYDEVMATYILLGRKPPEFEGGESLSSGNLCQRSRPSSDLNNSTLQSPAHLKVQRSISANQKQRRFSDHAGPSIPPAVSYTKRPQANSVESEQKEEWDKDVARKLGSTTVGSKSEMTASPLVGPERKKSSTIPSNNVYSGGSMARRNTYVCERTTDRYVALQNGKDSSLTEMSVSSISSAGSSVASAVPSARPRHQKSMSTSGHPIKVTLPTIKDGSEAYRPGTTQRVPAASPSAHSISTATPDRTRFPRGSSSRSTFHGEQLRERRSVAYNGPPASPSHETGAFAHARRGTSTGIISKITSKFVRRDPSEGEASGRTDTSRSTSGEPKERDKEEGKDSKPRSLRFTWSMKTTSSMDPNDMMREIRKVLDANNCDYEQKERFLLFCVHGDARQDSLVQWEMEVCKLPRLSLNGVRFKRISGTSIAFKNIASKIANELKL

Usually Ki stands for a dissociation constant, usually derived from enzyme kinetics or from competition with a known ligand. On to `CCn1c2cc(Cl)c(OC)cc2c(=O)c2c(=O)o[nH]c21`, for which the inhibition constant (Ki) in assay [1] was over 1.42 µM; in [2], 2.7 µM.
The like results for `CCn1c2cc(Cl)c(F)cc2c(=O)c2c(=O)on(Cc3ccccc3)c21` were, in that order, over 1.42 µM and 1.27 µM.
For the compound `CCn1c2cc(Cl)c(F)cc2c(=O)c2c(=O)on(Cc3cccc(O)c3)c21`, the Ki in [1] was over 1.42 µM; in assay [2], 0.271 µM.
As for `O=c1o[nH]c2c1c(=O)c1cc(F)c(Cl)cc1n2Cc1ccccc1`, the Ki in [1] was 0.558 µM; in [2], 0.0365 µM.
The matching figures for `CCCCn1c2cc(Cl)c(F)cc2c(=O)c2c(=O)o[nH]c21`: 0.165 µM and 0.015 µM.
Consider `CCn1c2cc(Cl)c(F)cc2c(=O)c2c(=O)on(CCO)c21`, for which the Ki in assay [1] was over 1.42 µM; in assay [2] it was 1.16 µM.
On to `CC(C)n1c2cc(Cl)c(F)cc2c(=O)c2c(=O)o[nH]c21`, for which the values for the Ki in [1] and in assay [2] were 0.0628 µM and 0.0123 µM, respectively.
The matching figures for `CCn1c2cc(Cl)c(F)cc2c(=O)c2c(=O)on(CCOCc3ccccc3)c21`: over 1.42 µM and 4.89 µM.
On to `CCn1c2cc(Cl)c(O)cc2c(=O)c2c(=O)o[nH]c21`, for which the Ki in assay [3] is over 8.33 µM; in assay [4], 1.73 µM; in assay [1] it was 0.0435 µM; in assay [5] it was over 7.5 µM; in assay [6] it was over 6.88 µM; in [7], 1.07 µM. Besides, the Ki in [8] was over 8.44 µM; in [9], over 6.67 µM.
